Measurements published in patent US11723987B2, “Double suicide gene vector systems for stem cells” (UNIVERSITY OF MIAMI, priority 2016, dated 2023).
“Also recorded” adds a separate entry of the source.

B1: T41L/N71S: double mutant of E. coli nitroreductase (NTR, nfsB) with enhanced kinetics of CB1954 activation (protein, UniProt P38489 1-217, looked up, variant T41L N71S)
Oxygen-insensitive NAD(P)H …: MDIISVALKRHSTKAFDASKKLTPEQAEQIKTLLQYSPSSLNSQPWHFIVASTEEGKARVAKSAAGNYVFSERKMLDASHVVVFCAKTAMDDVWLKLVVDQEDADGRFATPEAKAANDKGRKFFADMHRKDLHDDAEWMAKQVYLNVGNFLLGVAALGLDAVPIEGFDAAILDAEFGLKEKGYTSLVVVPVGHHSVEDFNATLPKSRLPQNITLTEV

Tests used:
λH1 cells (H1.1 cells) = test: MTT kill curve / pro-drug exposure of undifferentiated suicide-gene modified hESc; type: cell-based, human; conditions: for exposure time after which most λH1 cells die: 10 μM CB1954, 100 μM GCV (FIG. 8c); for ablation of H1.1 cells: after 7 days of exposure (FIG. 2); for sensitivity of undifferentiated modified clones to pro-drug: undifferentiated state
Description: Clones of the hESc line H1 containing both constructs were selected using Puro (for plasmid L) and Neo (for plasmid F). We used electroporation of the linearized plasmids followed by Puro+Neo selection to achieve stable integration of both cassettes (λH1). Integration was confirmed by PCR, and positive clones were expanded and stocked in liquid N2. ˜25 double resistant clones were handpicked, expanded under antibiotic selection and frozen in liquid N2. A typical undifferentiated colony of one such clone, propagated in Puro+Neo to maintain selective pressure, was imaged. […] Aliquots were screened by genomic PCR to confirm the integration of both constructs (data not shown). qRT-PCR was performed to determine which clones had higher transgene (HSV-TK and NTR) expression. Clone A (H1.1 from now on) was selected for further testing based on the results of these assays. A kill curve using different dosages for GCV (0.01 to 1000 μM) and CB1954 (0.1 to 300 μM) was done for H1.1. Cell death was quantified by MTT assays on H1.1 and the parental wild-type H1 line. These assays helped us determine the optimal concentration of each pro-drug that leads to complete ablation of undifferentiated H1.1 cells while preserving the viability of the parental line within 7 days. Such concentration was in the range of 10-100 μM for GCV and 50-100 μM for CB1954, as previously reported in the literature for other cell types^26,54,55. The integration of these constructs had no detectable effects in terms of pluripotency marker expression (TRA-1-60, SSEA3, SSEA4, Oct3/4, Nanog) vs. the unmodified parental line H1, as determined by qRT-PCR, immunofluorescence and FACS analyses (data not shown).
A kill curve using different dosages for GCV (0.01 to 1000 μM) and CB1954 (0.1 to 300 μM) was done for λH1 and the parental H1 lines. Cell death was quantified by MTT [3-(4,5-dimethylthiazol-2-yl)-2,5-diphenyltetrazolium bromide] assays, which helped us determine the optimal concentration of each pro-drug that leads to ablation of undifferentiated λH1 cells while preserving the viability of the parental line within 7 days. Such concentration was in the range of 10-100 μM for both GCV and CB1954 (FIG. 8a), as previously reported in the literature for other cell types (21, 22). We used 10 μM for CB1954 and 100 μM of GCV for all subsequent experiments.
hESc (H1, National Stem Cell Registry #WA01, passage 35-45) were cultured as described in Schuldiner et al., PNAS USA 97: 11307-11312 (2000) using mTeSR™ (STEMCELL Technologies, Vancouver, Canada). […] MTT (3-(4,5-dimethylthiazol-2-yl)-2,5-Diphenyltetrazolium Bromide) is a reagent which is converted from a soluble tetrazolium to its insoluble formazan form via the activity of mitochondrial NAD(P)H-dependent oxidoreductase activity. This can be used to evaluate growth and proliferation of hESC colonies. MTT growth assays were performed for the sensitivity of transfected colonies to neomycin, puromycin, GCV and CB1954 at varying concentrations as previously described.

parental H1 hESc line = test: MTT kill curve / pro-drug exposure of parental unmodified hESc; type: cell-based, human; conditions: up to 7 days of exposure
Description: Clones of the hESc line H1 containing both constructs were selected using Puro (for plasmid L) and Neo (for plasmid F). We used electroporation of the linearized plasmids followed by Puro+Neo selection to achieve stable integration of both cassettes (λH1). Integration was confirmed by PCR, and positive clones were expanded and stocked in liquid N2. ˜25 double resistant clones were handpicked, expanded under antibiotic selection and frozen in liquid N2. A typical undifferentiated colony of one such clone, propagated in Puro+Neo to maintain selective pressure, was imaged. […] Cell death was quantified by MTT assays on H1.1 and the parental wild-type H1 line. […] The integration of these constructs had no detectable effects in terms of pluripotency marker expression (TRA-1-60, SSEA3, SSEA4, Oct3/4, Nanog) vs. the unmodified parental line H1, as determined by qRT-PCR, immunofluorescence and FACS analyses (data not shown).
A kill curve using different dosages for GCV (0.01 to 1000 μM) and CB1954 (0.1 to 300 μM) was done for λH1 and the parental H1 lines. Cell death was quantified by MTT [3-(4,5-dimethylthiazol-2-yl)-2,5-diphenyltetrazolium bromide] assays, which helped us determine the optimal concentration of each pro-drug that leads to ablation of undifferentiated λH1 cells while preserving the viability of the parental line within 7 days. […]

teratomas from λH1 cells = test: Teratoma formation/elimination in immunodeficient mice xenotransplanted with undifferentiated λH1 cells; type: in vivo, NOD-SCID mice
Description: In order to test whether our suicide gene strategy works as intended in vivo, 5×10^6 undifferentiated λH1 cells were transplanted subcutaneously in the left posterior dorsal flank of 5-6-week-old immunodeficient NOD-SCID mice. These conditions are known to result in the formation of teratomas within 6-9 weeks. Groups were assigned as follows: • 1. Control (no treatment): 3 mice • 2. Peri-transplantation treatment with GCV (40 mg/kg of body weight; 5 days, starting the 7th day after transplantation): 4 mice • 3. Peri-transplantation treatment with CB1954 (20 mg/kg of body weight; 5 days, starting the 7th day after transplantation): 4 mice
As described in the literature, tumors could be manually palpated and measured using calipers in the control group starting at week 6-7. At week 10, one of the mice was euthanized for histopathological characterization of the teratoma. Starting on week 11, we treated the remaining two mice with a combination of GCV and CB1954 to test the hypothesis that pro-drug administration would eliminate already formed tumors.
Two mice in this group were euthanized at this point, showing no evidence of tumors (data not shown). […] This could be due to either the carry-over of residual hESc escapees that survived the initial GCV regimen, or to the development of GCV-resistant mutations in HSV-TK, as described in the literature. To test these two hypotheses, we re-treated these animals with ganciclovir in a 5-day drug/2-day rest regimen for the following two weeks. If the reason for the appearance of these late-onset tumors was resistance to the drug, we should continue to observe tumor growth despite the treatment; in contrast, if they were derived from surviving escapees, we might see tumor recession.
All animal experiments were conducted under the supervision of the University of Miami Institutional Animal Care and Use Committee (IACUC). NOD-SCID mice (5-6 weeks old; Jackson Laboratories, Bar Harbour, Me.) were housed in […] pathogen-free (SPF) conditions at the Division of Veterinary Resources (DVR). 5×10^6 hESc were resuspended in 50 μl mTeSR supplemented with […] of the ROCK inhibitor Y-27632A, and subsequently mixed with undiluted Matrigel of equal volume. The cell suspension was injected into the subcutis of the left posterior dorsal flank of the animal. Tumor growth was monitored with a caliper. Mice were euthanized after the observation/re-treatment period, as described in the Results section. Euthanized animals were subject to general observation. The injection site was inspected and tumor tissue, if present, was collected and processed for histopathological analysis. Lungs, liver spleen and pancreas were also harvested for histological analysis of potential tumor invasion.

tumor cell lines = conditions: Prof. Searle, personal communication; cited from earlier work

| Molecule | exposure time after which most λH1 cells die (λH1 cells (H1.1 cells)) [days] | ablation of H1.1 cells (λH1 cells (H1.1 cells)) [%] | sensitivity of undifferentiated modified clones to pro-drug (λH1 cells (H1.1 cells)) | sensitivity of parental H1 line to pro-drug (parental H1 hESc line) | tumor formation after peri-transplantation treatment with CB1954 (teratomas from λH1 cells; 20 mg/kg, 5 days, starting the 7th day after transplantation, 11 weeks into the follow-up) | optimal concentration of pro-drug that leads to ablation of undifferentiated modified cells while preserving the viability of the parental line (λH1 cells (H1.1 cells); within 7 days, MTT assay, kill curve GCV 0.01 to 1000 μM, CB1954 0.1 to 300 μM) [µM] | tumor detection after peri-transplantation treatment with GCV (teratomas from λH1 cells; 40 mg/kg, 5 days, starting the 7th day after transplantation, up to week 10) | tumors after GCV re-treatment (teratomas from λH1 cells; 5-day drug/2-day rest regimen, 2-week course, one tumor >250 mm^3 at initiation (FIG. 11b)) | late-onset tumors in GCV-pretreated mice (teratomas from λH1 cells; two remaining mice, additional week after week 10) | fold lower CB1954 concentration to which cells are sensitized vs the native enzyme (tumor cell lines) [fold] |
| --- | --- | --- | --- | --- | --- | --- | --- | --- | --- | --- |
| NC(=O)c1cc(N2CC2)c([N+](=O)[O-])cc1[N+](=O)[O-] [CB1954, 5-(aziridin-1-yl)-2,4-dinitrobenzamide] | 3 | 100 | sensitive | largely insensitive; also recorded: resistant; also recorded: remain largely unscathed | none of the animals in the third group (treated in the peri-transplantation period with CB1954) showed signs of tumor formation |  |  |  |  |  |
| Nc1nc(O)c2ncn(COC(CO)CO)c2n1 [GCV, ganciclovir] | 7 | 100 | sensitive | largely insensitive; also recorded: resistant; also recorded: remain largely unscathed |  | 10 to 100 | No tumors could be detected | both tumors virtually disappeared | the tumors grew significantly in both mice |  |
| B1 |  |  |  |  |  |  |  |  |  | ~15 |
